According to paper PMC8254048, “An interdomain hydrogen bond in the Rag GTPases maintains stable mTORC1 signaling in sensing amino acids” (The Journal of Biological Chemistry, 2021):

What was measured:
[1] = target: T1, RagA–RagC GTPase heterodimer (Rag GTPases) (Homo sapiens, UniProt Q7L523+Q9HB90, Q9HB90:S266A); assay: half-site GTP hydrolysis after nucleotide preloading; assay type: biochemical; conditions: 1.2 molar equivalents prebound, labelled GTP added; pH 7.4, 2 mM MgCl2, 25 °C; stimulates hydrolysis on second subunit
T1 construct: gene RRAGA; RagA-RagC heterodimer coexpressed in E. coli BL21(DE3); nucleotide stripped with EDTA, gel filtration
T1 sequence (Q7L523 whole entry): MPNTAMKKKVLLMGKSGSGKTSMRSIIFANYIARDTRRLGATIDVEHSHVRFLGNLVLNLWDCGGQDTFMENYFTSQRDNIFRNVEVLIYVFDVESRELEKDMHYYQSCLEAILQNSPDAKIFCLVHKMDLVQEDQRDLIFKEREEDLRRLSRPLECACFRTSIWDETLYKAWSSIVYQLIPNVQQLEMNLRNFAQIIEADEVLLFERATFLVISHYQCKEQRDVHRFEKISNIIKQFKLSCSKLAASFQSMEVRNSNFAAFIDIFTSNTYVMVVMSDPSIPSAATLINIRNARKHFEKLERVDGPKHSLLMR
T1 sequence (Q9HB90 whole entry S266A): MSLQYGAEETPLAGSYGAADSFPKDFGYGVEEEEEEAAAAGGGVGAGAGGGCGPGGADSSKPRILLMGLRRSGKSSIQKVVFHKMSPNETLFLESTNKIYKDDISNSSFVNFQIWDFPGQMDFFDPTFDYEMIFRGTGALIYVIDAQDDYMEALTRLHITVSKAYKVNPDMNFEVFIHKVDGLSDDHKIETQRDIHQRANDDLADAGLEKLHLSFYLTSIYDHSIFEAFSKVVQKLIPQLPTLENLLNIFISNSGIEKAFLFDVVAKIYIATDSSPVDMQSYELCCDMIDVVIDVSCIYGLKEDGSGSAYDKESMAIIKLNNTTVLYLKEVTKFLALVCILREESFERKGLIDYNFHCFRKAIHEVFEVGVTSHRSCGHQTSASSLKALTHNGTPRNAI

[2] = target: T2, RagA–RagC GTPase heterodimer (Rag GTPases) (Homo sapiens, UniProt Q7L523+Q9HB90, Q7L523:T210A); assay: as above; assay type: biochemical; conditions: 1.2 molar equivalents prebound, labelled GTP added; pH 7.4, 2 mM MgCl2, 25 °C; stimulates hydrolysis on second subunit
T2 construct: gene RRAGA; RagA-RagC heterodimer coexpressed in E. coli BL21(DE3); nucleotide stripped with EDTA, gel filtration
T2 sequence (Q7L523 whole entry T210A): as the sequence (Q7L523 whole entry) above, with T210A counted along it
T2 sequence (Q9HB90 whole entry): as the sequence (Q9HB90 whole entry S266A) above, with A266S counted along it

For `Nc1nc2c(ncn2[C@@H]2O[C@H](COP(=O)(O)OP(=O)(O)NP(=O)(O)O)[C@@H](O)[C@H]2O)c(=O)[nH]1` [GppNHp], the “half-site GTP hydrolysis after nucleotide preloading” value [1] was “prebound GTP or GppNHp stimulated hydrolysis of the later-bound GTP to a much higher level” and the “half-site GTP hydrolysis after nucleotide preloading” value [2] was “prebound GTP or GppNHp stimulated hydrolysis of the later-bound GTP to a much higher level”.
